Data on 23 compounds can be found in US8809331B2 (Genentech, Inc., priority 2011, dated 2014).

As a reminder, the Ki is a measure of affinity in units of concentration, obtained from inhibition or displacement. Low readings indicate higher affinity, high ones lower affinity.

In one test the target is T1, LRRK2 (Homo sapiens, UniProt Q5S007, G2019S).
T1 construct: purchased Invitrogen PV4882
T1 sequence (Q5S007 whole entry G2019S): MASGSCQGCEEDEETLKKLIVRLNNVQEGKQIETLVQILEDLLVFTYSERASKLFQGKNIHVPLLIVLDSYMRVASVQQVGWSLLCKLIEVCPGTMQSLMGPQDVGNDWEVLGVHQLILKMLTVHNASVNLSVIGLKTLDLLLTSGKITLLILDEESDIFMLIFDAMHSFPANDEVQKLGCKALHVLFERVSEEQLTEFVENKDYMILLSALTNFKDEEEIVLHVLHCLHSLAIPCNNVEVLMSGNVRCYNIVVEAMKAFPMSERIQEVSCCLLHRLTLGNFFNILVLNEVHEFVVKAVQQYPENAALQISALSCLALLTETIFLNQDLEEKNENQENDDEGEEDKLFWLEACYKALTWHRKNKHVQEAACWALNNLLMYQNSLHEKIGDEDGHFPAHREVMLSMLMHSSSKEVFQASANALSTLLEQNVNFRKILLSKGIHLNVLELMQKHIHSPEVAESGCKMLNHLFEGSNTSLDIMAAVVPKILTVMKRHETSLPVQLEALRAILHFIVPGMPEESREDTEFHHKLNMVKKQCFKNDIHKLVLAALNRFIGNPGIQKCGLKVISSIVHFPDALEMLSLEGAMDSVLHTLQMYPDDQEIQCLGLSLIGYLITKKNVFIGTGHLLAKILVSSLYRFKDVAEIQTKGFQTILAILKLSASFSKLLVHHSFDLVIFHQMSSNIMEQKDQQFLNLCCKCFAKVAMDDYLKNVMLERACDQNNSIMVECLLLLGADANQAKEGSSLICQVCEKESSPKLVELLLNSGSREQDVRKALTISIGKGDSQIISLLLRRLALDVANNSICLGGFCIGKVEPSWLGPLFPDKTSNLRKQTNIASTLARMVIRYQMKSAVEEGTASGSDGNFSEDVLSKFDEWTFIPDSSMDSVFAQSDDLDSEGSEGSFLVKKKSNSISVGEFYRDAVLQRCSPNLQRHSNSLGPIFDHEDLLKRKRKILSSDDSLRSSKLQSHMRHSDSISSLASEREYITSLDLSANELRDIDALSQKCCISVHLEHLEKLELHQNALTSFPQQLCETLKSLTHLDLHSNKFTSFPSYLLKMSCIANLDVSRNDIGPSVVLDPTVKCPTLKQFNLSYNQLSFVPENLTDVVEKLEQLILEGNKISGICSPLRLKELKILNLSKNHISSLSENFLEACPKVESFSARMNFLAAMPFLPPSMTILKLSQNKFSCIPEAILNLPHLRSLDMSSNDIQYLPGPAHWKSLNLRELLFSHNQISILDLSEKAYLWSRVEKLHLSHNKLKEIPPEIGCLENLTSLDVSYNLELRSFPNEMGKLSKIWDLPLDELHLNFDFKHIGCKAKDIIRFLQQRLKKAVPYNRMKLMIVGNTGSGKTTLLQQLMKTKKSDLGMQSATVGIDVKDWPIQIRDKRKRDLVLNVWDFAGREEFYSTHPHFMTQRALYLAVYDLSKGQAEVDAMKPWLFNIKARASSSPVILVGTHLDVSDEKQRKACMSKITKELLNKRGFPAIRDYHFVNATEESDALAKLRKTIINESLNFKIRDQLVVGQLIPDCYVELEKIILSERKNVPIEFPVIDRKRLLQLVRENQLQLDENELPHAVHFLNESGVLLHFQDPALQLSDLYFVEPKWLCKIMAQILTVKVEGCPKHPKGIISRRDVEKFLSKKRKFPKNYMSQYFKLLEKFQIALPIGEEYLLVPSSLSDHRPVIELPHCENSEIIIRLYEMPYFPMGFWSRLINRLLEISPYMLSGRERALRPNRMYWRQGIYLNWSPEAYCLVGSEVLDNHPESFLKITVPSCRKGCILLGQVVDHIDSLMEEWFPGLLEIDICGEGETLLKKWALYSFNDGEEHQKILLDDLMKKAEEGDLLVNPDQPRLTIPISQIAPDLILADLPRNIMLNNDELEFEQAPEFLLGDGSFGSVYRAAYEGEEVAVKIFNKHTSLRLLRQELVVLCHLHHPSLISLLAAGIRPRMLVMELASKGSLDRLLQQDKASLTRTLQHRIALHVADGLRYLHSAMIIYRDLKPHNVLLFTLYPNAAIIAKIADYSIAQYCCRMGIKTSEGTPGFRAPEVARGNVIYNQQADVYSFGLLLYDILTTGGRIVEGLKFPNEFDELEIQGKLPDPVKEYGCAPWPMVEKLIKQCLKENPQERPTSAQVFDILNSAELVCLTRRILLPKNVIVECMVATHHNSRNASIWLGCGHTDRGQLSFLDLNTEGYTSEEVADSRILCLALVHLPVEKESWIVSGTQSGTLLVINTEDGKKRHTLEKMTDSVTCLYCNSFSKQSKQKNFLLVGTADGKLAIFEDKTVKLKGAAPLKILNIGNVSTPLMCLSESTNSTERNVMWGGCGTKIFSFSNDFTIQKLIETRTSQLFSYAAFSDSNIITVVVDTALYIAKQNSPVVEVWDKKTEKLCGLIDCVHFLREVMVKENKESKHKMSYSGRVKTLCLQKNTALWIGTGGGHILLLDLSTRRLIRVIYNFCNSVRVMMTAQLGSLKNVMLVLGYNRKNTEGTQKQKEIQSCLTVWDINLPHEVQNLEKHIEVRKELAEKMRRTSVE
In words: In Vitro LRRK2 LabChip Assay (LRRK2 Ki). The test is classed as biochemical. The conditions noted are these: Table 5 compounds (formula I).
Take `[2H]C1([2H])C(Nc2nc(Nc3cc(F)c(C(=O)N4CCOCC4)cc3OC)ncc2C(F)(F)F)C1([2H])[2H]` [Compound 123, (4-(4-(2,3-tetradeutero-cyclopropylamino)-5-(trifluoromethyl)pyrimidin-2-ylamino)-2-fluoro-5-methoxyphenyl)(morpholino)methanone]: the inhibition constant (Ki) is 0.31 nM.
`[2H]C1([2H])OC([2H])([2H])C([2H])([2H])N(C(=O)c2cc(Cl)c(Nc3ncc(C(F)(F)F)c(NCC)n3)cc2OC)C1([2H])[2H]` [Compound 86, (5-chloro-4-(4-(ethylamino)-5-(trifluoromethyl)pyrimidin-2-ylamino)-2-methoxyphenyl)(perdeuteromorpholino)methanone]: the inhibition constant (Ki) came out at 4.09 nM.
`O=C(c1cc(F)c(Nc2ncc(C(F)(F)F)c(NC3CC3)n2)cc1F)N1CCOCC1` [Compound 52, [4-(4-Cyclopropylamino-5-trifluoromethyl-pyrimidin-2-ylamino)-2,5-difluoro-phenyl]-morpholin-4-yl-methanone] had a Ki of 3.35 nM.
Regarding `CNc1nc(Nc2ccc(C(=O)N3CCOCC3)cc2OC2CC2)ncc1C(F)(F)F` [Compound 77, [3-Cyclopropoxy-4-(4-methylamino-5-trifluoromethyl-pyrimidin-2-ylamino)-phenyl]-morpholin-4-yl-methanone], the affinity corresponds to a Ki of 1.62 nM.
On the same count and under the same terms, the result for `CNc1nc(Nc2cc(F)c(C(=O)N3CCOC(C)(C)C3)cc2OC)ncc1C(F)(F)F` [Compound 76, (2,2-Dimethyl-morpholin-4-yl)-[2-fluoro-5-methoxy-4-(4-methylamino-5-trifluoromethyl-pyrimidin-2-ylamino)-phenyl]-methanone] reads 6.86 nM; that for `CNc1nc(Nc2cc(C)c(C(=O)N3CCOCC3)cc2OCC2CC2)ncc1C(F)(F)F` [Compound 109, [5-Cyclopropylmethoxy-2-methyl-4-(4-methylamino-5-trifluoromethyl-pyrimidin-2-ylamino)-phenyl]-morpholin-4-yl-methanone], 1.38 nM.
For the compound `CCNc1nc(Nc2cc(F)c(C(=O)N3C[C@@H]4C[C@H]3CO4)cc2OC)ncc1C(F)(F)F` [Compound 14, [4-(4-Ethylamino-5-trifluoromethyl-pyrimidin-2-ylamino)-2-fluoro-5-methoxy-phenyl]-(1S,4S)-2-oxa-5-aza-bicyclo[2.2.1]hept-5-yl-methanone], the Ki was found to be 0.59 nM.
With `O=C(c1cc(OCCF)c(Nc2ncc(C(F)(F)F)c(NC3CC3)n2)cc1F)N1CCOCC1` [Compound 70, [4-(4-Cyclopropylamino-5-trifluoromethyl-pyrimidin-2-ylamino)-2-fluoro-5-(2-fluoro-ethoxy)-phenyl]-morpholin-4-yl-methanone], the Ki worked out at 0.658 nM.
As for `CNc1nc(Nc2cc(OC)c(C(=O)N3CCC(F)(F)C3)cc2Cl)ncc1C(F)(F)F` [Compound 24, [5-Chloro-2-methoxy-4-(4-methylamino-5-trifluoromethyl-pyrimidin-2-ylamino)-phenyl]-(3,3-difluoro-pyrrolidin-1-yl)-methanone], the Ki is 6.67 nM.
Still for that read-out and setting: the result for `CNc1nc(Nc2cc(C)c(C(=O)NCC(C)(C)O)cc2OC)ncc1C(F)(F)F` [Compound 116, N-(2-Hydroxy-2-methyl-propyl)-5-methoxy-2-methyl-4-(4-methylamino-5-trifluoromethyl-pyrimidin-2-ylamino)-benzamide] reads 1.19 nM.
Compound `CCNc1nc(Nc2cc(Cl)c(C(=O)N3CCOCC3)cc2F)ncc1C(F)(F)F` [Compound 59, [2-Chloro-4-(4-ethylamino-5-trifluoromethyl-pyrimidin-2-ylamino)-5-fluoro-phenyl]-morpholin-4-yl-methanone] showed a Ki of 4.31 nM.
In turn, `CCNc1nc(Nc2cc(F)c(C(=O)NC(C)(C)CO)cc2OC)ncc1C(F)(F)F` [Compound 106, 4-(4-Ethylamino-5-trifluoromethyl-pyrimidin-2-ylamino)-2-fluoro-N-(2-hydroxy-1,1-dimethyl-ethyl)-5-methoxy-benzamide] came in with a Ki of 0.406 nM.
Still for that read-out and setting: with `CNc1nc(Nc2cc(OC)c(C(=O)N3CCOCC3)c(OC)c2F)ncc1C(F)(F)F` [Compound 122, [3-Fluoro-2,6-dimethoxy-4-(4-methylamino-5-trifluoromethyl-pyrimidin-2-ylamino)-phenyl]-morpholin-4-yl-methanone] the figure was 2.06 nM; with `CNc1nc(Nc2cc(OC)c(C(=O)N3CCOCC3)cc2OC)ncc1C(F)(F)F` [Compound 65, [2,5-Dimethoxy-4-(4-methylamino-5-trifluoromethyl-pyrimidin-2-ylamino)-phenyl]-morpholin-4-yl-methanone], 1.09 nM.
Still for that read-out and setting: with `CNc1nc(Nc2cc(C)c(C(=O)N3CCOCC3)cc2OC(C)C)ncc1C(F)(F)F` [Compound 99, [5-Isopropoxy-2-methyl-4-(4-methylamino-5-trifluoromethyl-pyrimidin-2-ylamino)-phenyl]-morpholin-4-yl-methanone] the figure was 3.66 nM; with `CCNc1nc(Nc2cc(C)c(C(=O)NCC(C)(C)O)cc2OC)ncc1C(F)(F)F` [Compound 105, 4-(4-Ethylamino-5-trifluoromethyl-pyrimidin-2-ylamino)-N-(2-hydroxy-2-methyl-propyl)-5-methoxy-2-methyl-benzamide], 0.31 nM.
On the same count and under the same terms, with `CNc1nc(Nc2cc(OC)c(C(=O)N3CCOCC3)cc2C)ncc1C(F)(F)F` [Compound 58, [2-Methoxy-5-methyl-4-(4-methylamino-5-trifluoromethyl-pyrimidin-2-ylamino)-phenyl]-morpholin-4-yl-methanone] the figure was 5.63 nM; with `CNc1nc(Nc2ccc(C(=O)N3CCOCC3)cc2F)ncc1C(F)(F)F` [Compound 22, [3-Fluoro-4-(4-methylamino-5-trifluoromethyl-pyrimidin-2-ylamino)-phenyl]-morpholin-4-yl-methanone], 20.9 nM; with `CCN(c1ncc(C(F)(F)F)c(NC)n1)c1cc(C)c(C(=O)N2CCOCC2)cc1OCF` [Compound 89, {4-[Ethyl-(4-methylamino-5-trifluoromethyl-pyrimidin-2-yl)-amino]-5-fluoromethoxy-2-methyl-phenyl}-morpholin-4-yl-methanone], 2600 nM.
`CCOc1nc(Nc2cc(F)c(C(=O)N3CCOCC3)cc2OC)ncc1C(F)(F)F` [Compound 64, [4-(4-Ethoxy-5-trifluoromethyl-pyrimidin-2-ylamino)-2-fluoro-5-methoxy-phenyl]-morpholin-4-yl-methanone] showed a Ki of 16.9 nM.
`CCNc1nc(Nc2cc(OC)c(C(=O)N3CCC(F)(F)C3)cc2OCCF)ncc1C(F)(F)F` [Compound 61, (3,3-Difluoro-pyrrolidin-1-yl)-[4-(4-ethylamino-5-trifluoromethyl-pyrimidin-2-ylamino)-5-(2-fluoro-ethoxy)-2-methoxy-phenyl]-methanone] showed an inhibition constant Ki of 1.03 nM.
On the same count and under the same terms, the result for `CNc1nc(Nc2cc(F)c(C(=O)NCC(C)(C)O)cc2OC)ncc1C(F)(F)F` [Compound 35, 2-Fluoro-N-(2-hydroxy-2-methyl-propyl)-5-methoxy-4-(4-methylamino-5-trifluoromethyl-pyrimidin-2-ylamino)-benzamide] reads 4.36 nM.

Still in this test, the particulars now being: Table 6 compounds (formula II/III, fused ring).
For “[5-Chloro-2-hydroxy-4-(4-methylamino-5-trifluoromethyl-pyrimidin-2-ylamino)-phenyl]-morpholin-4-yl-methanone [Compound 10]”, the affinity corresponds to a Ki of 3.17 nM.
